Experiments:
Rattus norvegicus [1] = assay: Percent inhibition of edema in carrageenan-induced rat paw edema was determined by comparing with vehicle control group when tested on 10 rats at peroral dose of 100 umol/Kg; type: functional; details: po
Rattus norvegicus [2] = assay: Percent inhibition of pleural inflammation in carrageenan-induced rat model was determined by comparing with vehicle control group when tested on 5 rats at peroral dose of 100 umol/Kg; type: functional; details: po
Rattus norvegicus [3] = assay: Percent inhibition of edema in carrageenan-induced rat paw edema was determined by comparing with vehicle control group when tested on 5 rats at peroral dose of 100 umol/Kg; type: functional; details: po
Rattus norvegicus [4] = species on record: Rattus norvegicus; assay: animal or person; details: po, read-out: Inhibition
Description: Percent inhibition of pleural inflammation in carrageenan-induced rat model was determined by comparing with vehicle control group when tested on 8 rats at peroral dose of 100 umol/Kg

Rattus norvegicus [5] = assay: Percent inhibition of edema in carrageenan-induced rat paw edema was determined by comparing with vehicle control group when tested on 14 rats at peroral dose of 100 umol/Kg; Not significant; type: functional; details: po
Rattus norvegicus [6] = assay: Percent inhibition of pleural inflammation in carrageenan-induced rat model was determined by comparing with vehicle control group when tested on 10 rats at peroral dose of 100 umol/Kg; type: functional; details: po

| SMILES | inhibition in vivo at 100 µmol/kg (Rattus norvegicus [2]) | inhibition in vivo at 100 µmol/kg (Rattus norvegicus [3]) | other results |
| --- | --- | --- | --- |
| CS(=O)(=O)Nc1cc2c(cc1Cc1ccccc1)OCO2 | 43.1% | – | inhibition in vivo at 100 µmol/kg (Rattus norvegicus [1]): 21% |
| CS(=O)(=O)Nc1ccc([N+](=O)[O-])cc1Oc1ccccc1 [NIMESULIDE] | – | 61.7% | inhibition in vivo at 100 µmol/kg (Rattus norvegicus [4]): 29.9% |
| CNS(=O)(=O)c1cc2c(cc1Cc1ccccc1)OCO2 | 46% | – | inhibition in vivo at 100 µmol/kg (Rattus norvegicus [5]): 2.7% |
| COc1ccc2c(c1)c(CC(=O)O)c(C)n2C(=O)c1ccc(Cl)cc1 [INDOMETHACIN] | – | 85.4% | inhibition in vivo at 100 µmol/kg (Rattus norvegicus [6]): 31.7% |
| O=S(=O)(Nc1ccccc1)c1cc2c(cc1Cc1ccccc1)OCO2 | 24.6% | 27.2% | – |
| CS(=O)(=O)Nc1cc2c(cc1Cc1cccc(C(F)(F)F)c1)OCO2 | 24.6% | 19.7% | – |

Source: ChEMBL document CHEMBL1131266, “Synthesis and pharmacological evaluation of new flosulide analogues, synthesized from natural safrole” (1998)
